This note sets out measurements from patent US20240366775A1, “HUMAN TRANSFERRIN RECEPTOR BINDING ANTIBODY-PEPTIDE CONJUGATE” (PEPTIDREAM INC., priority 2021, published 2024).

Molecules are shown by their SMILES. Where a SMILES comes first, the peptide text is derived from it. Bridges are numbered along the chain shown (N, C = ends). [ ]: non-standard residue; d: D form. The star is where a group is joined. NMeY = CN[C@@H](Cc1ccc(O)cc1)C(=O)O; NMeF = CN[C@@H](Cc1ccccc1)C(=O)O; OSu = O=C1CCC(=O)N1O*; GABA = NCCCC(=O)O Where only a bound is given, the exact number is not on record here.

The first test deals with human transferrin receptor (hTfR) (Homo sapiens, UniProt P02786). The test is described as follows: SPR measurement of peptide binding to hTfR.
human transferrin receptor (hTfR), sequence (P02786 whole entry): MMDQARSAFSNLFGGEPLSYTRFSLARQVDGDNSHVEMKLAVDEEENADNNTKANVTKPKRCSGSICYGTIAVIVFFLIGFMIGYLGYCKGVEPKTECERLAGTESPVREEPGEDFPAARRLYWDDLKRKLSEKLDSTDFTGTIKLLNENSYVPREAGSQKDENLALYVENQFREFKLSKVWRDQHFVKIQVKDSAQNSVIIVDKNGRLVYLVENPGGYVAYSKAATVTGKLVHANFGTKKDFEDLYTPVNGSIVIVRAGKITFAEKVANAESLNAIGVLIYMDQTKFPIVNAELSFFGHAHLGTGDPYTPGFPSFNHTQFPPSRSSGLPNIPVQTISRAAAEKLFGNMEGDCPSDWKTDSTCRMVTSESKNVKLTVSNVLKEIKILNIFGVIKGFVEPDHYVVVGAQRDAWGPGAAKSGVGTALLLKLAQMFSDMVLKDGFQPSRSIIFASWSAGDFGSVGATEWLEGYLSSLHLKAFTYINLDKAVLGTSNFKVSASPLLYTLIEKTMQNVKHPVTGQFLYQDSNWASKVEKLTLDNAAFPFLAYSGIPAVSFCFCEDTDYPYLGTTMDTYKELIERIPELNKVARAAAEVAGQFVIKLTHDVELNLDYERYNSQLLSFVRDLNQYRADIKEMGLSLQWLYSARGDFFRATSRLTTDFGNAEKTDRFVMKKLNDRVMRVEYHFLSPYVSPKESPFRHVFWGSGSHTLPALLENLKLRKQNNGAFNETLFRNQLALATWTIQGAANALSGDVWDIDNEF
Settings: not given
The source says: Note that ND indicates No Data (here, it means that no data was obtained).
Consider `CC[C@H](C)[C@@H]1NC(=O)[C@H](Cc2ccc(O)cc2)NC(=O)[C@H](Cc2ccc(O)cc2)NC(=O)[C@H](CC(N)=O)NC(=O)[C@H](Cc2c[nH]c3ccccc23)NC(=O)[C@H](C(C)C)NC(=O)[C@H](Cc2ccccc2)N(C)C(=O)[C@H](C(C)C)NC(=O)[C@H](C)NC(=O)CSC[C@@H](C(=O)NCC(=O)NCC(=O)NCC(=O)NCC(=O)N[C@@H](CO)C(=O)N[C@@H](CO)C(=O)N[C@@H](CCCCNC(=O)C2CCC(CN3C(=O)C=CC3=O)CC2)C(N)=O)NC(=O)[C@H](Cc2ccc(O)cc2)N(C)C(=O)[C@H](Cc2ccc(O)cc2)NC(=O)[C@H](CCCNC(=N)N)NC(=O)[C@H](CCCNC(=N)N)NC(=O)[C@H]([C@@H](C)CC)NC1=O` (stereo partly drawn) [894_3m_G4S2_K(Mal)], for which the Kd was 1 to 100 nM.

Staying with this test, now noted: measured on the naked peptide (1st to 15th amino acids, without linker) corresponding to the listed linker-attached peptide; read-out: KD value of binding to hTfR by SPR.
As to `CC[C@H](C)[C@@H]1NC(=O)[C@H](Cc2ccc(O)cc2)NC(=O)[C@H](Cc2ccc(O)cc2)NC(=O)[C@H](CC(N)=O)NC(=O)[C@H](Cc2c[nH]c3ccccc23)N(C)C(=O)[C@H](C(C)C)NC(=O)[C@H](Cc2ccccc2)N(C)C(=O)[C@H](C(C)C)NC(=O)[C@H](C)NC(=O)CSC[C@@H](C(=O)NCC(=O)NCC(=O)N[C@@H](CO)C(=O)NCC(=O)N[C@@H](CCC(=O)O)C(=O)N[C@@H](CO)C(=O)N[C@@H](CCCCNC(=O)C2CCC(CN3C(=O)C=CC3=O)CC2)C(N)=O)NC(=O)[C@H](Cc2ccc(O)cc2)N(C)C(=O)[C@H](Cc2ccc(O)cc2)NC(=O)[C@H](CCCNC(=N)N)NC(=O)[C@H](CCCNC(=N)N)NC(=O)[C@H]([C@@H](C)CC)NC1=O` (stereo partly drawn) [894_3m_5m_GGSGES_K(Mal)], the Kd lay within 1 to 100 nM.

In the case of `CC[C@H](C)[C@@H]1NC(=O)[C@H](Cc2ccc(O)cc2)NC(=O)[C@H](Cc2ccc(O)cc2)NC(=O)[C@H](CC(N)=O)NC(=O)[C@H](Cc2c[nH]c3ccccc23)NC(=O)[C@H](C(C)C)NC(=O)[C@H](Cc2ccccc2)N(C)C(=O)[C@H](C(C)C)NC(=O)[C@H](C)NC(=O)CSC[C@@H](C(=O)NCC(=O)NCC(=O)N[C@@H](CCCNC(=N)N)C(=O)NCC(=O)N[C@@H](CCCNC(=N)N)C(=O)N[C@@H](CO)C(=O)N[C@@H](CCCCNC(=O)C2CCC(CN3C(=O)C=CC3=O)CC2)C(N)=O)NC(=O)[C@H](Cc2ccc(O)cc2)N(C)C(=O)[C@H](Cc2ccc(O)cc2)NC(=O)[C@H](CCCNC(=N)N)NC(=O)[C@H](CCCNC(=N)N)NC(=O)[C@H]([C@@H](C)CC)NC1=O` (stereo partly drawn) [894_3m_GGRGRS_K(Mal)], the Kd fell in the range of 1 to 100 nM.

In the case of `CC[C@H](C)[C@@H]1NC(=O)[C@H](Cc2ccc(O)cc2)NC(=O)[C@H](Cc2ccc(O)cc2)NC(=O)[C@H](CC(N)=O)NC(=O)[C@H](Cc2c[nH]c3ccccc23)NC(=O)[C@H](C(C)C)NC(=O)[C@H](Cc2ccccc2)N(C)C(=O)[C@H](C(C)C)NC(=O)[C@H](C)NC(=O)CSC[C@@H](C(=O)NCC(=O)NCC(=O)N[C@H](CCC(=O)O)C(=O)NCC(=O)NCC(=O)N[C@H](CCC(=O)O)C(=O)NCC(=O)NCC(=O)N[C@H](CCC(=O)O)C(=O)NCC(=O)NCC(=O)N[C@H](CCCCNC(=O)C2CCC(CN3C(=O)C=CC3=O)CC2)C(N)=O)NC(=O)[C@H](Cc2ccc(O)cc2)N(C)C(=O)[C@H](Cc2ccc(O)cc2)NC(=O)[C@H](CCCNC(=N)N)NC(=O)[C@H](CCCNC(=N)N)NC(=O)[C@H]([C@@H](C)CC)NC1=O` (stereo partly drawn) [894_3m_Linke04_dk(Mal)], the Kd was 1 to 100 nM.

In the case of `CC[C@H](C)[C@@H]1NC(=O)[C@H](Cc2ccc(O)cc2)NC(=O)[C@H](Cc2ccc(O)cc2)NC(=O)[C@H](CC(N)=O)NC(=O)[C@H](Cc2c[nH]c3ccccc23)N(C)C(=O)[C@H](C(C)C)NC(=O)[C@H](Cc2ccccc2)NC(=O)[C@H](C(C)C)NC(=O)[C@H](C)NC(=O)CSC[C@@H](C(=O)NCC(=O)NCC(=O)N[C@@H](CCC(=O)O)C(=O)N[C@@H](CO)C(=O)N[C@@H](CCC(=O)O)C(=O)N[C@@H](CO)C(=O)N[C@@H](CCCCNC(=O)C2CCC(CN3C(=O)C=CC3=O)CC2)C(N)=O)NC(=O)[C@H](Cc2ccc(O)cc2)N(C)C(=O)[C@H](Cc2ccc(O)cc2)NC(=O)[C@H](CCCNC(=N)N)NC(=O)[C@H](CCCNC(=N)N)NC(=O)[C@H]([C@@H](C)CC)NC1=O` (stereo partly drawn) [894_5m_GGESES_K(Mal)], the Kd was less than 1 nM.

On to `CC[C@H](C)[C@@H]1NC(=O)[C@H](Cc2ccc(O)cc2)NC(=O)[C@H](Cc2ccc(O)cc2)NC(=O)[C@H](CC(N)=O)NC(=O)[C@H](Cc2c[nH]c3ccccc23)N(C)C(=O)[C@H](C(C)C)NC(=O)[C@H](Cc2ccccc2)NC(=O)[C@H](C(C)C)NC(=O)[C@H](C)NC(=O)CSC[C@@H](C(=O)NCC(=O)NCC(=O)N[C@@H](CCCNC(=N)N)C(=O)N[C@@H](CO)C(=O)N[C@@H](CCC(=O)O)C(=O)N[C@@H](CO)C(=O)N[C@@H](CCCCNC(=O)C2CCC(CN3C(=O)C=CC3=O)CC2)C(N)=O)NC(=O)[C@H](Cc2ccc(O)cc2)N(C)C(=O)[C@H](Cc2ccc(O)cc2)NC(=O)[C@H](CCCNC(=N)N)NC(=O)[C@H](CCCNC(=N)N)NC(=O)[C@H]([C@@H](C)CC)NC1=O` (stereo partly drawn) [894_5m_GGRSES_K(Mal)], for which the Kd was less than 1 nM.

For `CC[C@H](C)[C@@H]1NC(=O)[C@H](Cc2ccc(O)cc2)NC(=O)[C@H](Cc2ccc(O)cc2)NC(=O)[C@H](CC(N)=O)NC(=O)[C@H](Cc2c[nH]c3ccccc23)N(C)C(=O)[C@H](C(C)C)NC(=O)[C@H](Cc2ccccc2)NC(=O)[C@H](C(C)C)NC(=O)[C@H](C)NC(=O)CSC[C@@H](C(=O)NCC(=O)NCC(=O)N[C@@H](CO)C(=O)NCC(=O)N[C@@H](CCC(=O)O)C(=O)N[C@@H](CO)C(=O)N[C@@H](CCCCNC(=O)C2CCC(CN3C(=O)C=CC3=O)CC2)C(N)=O)NC(=O)[C@H](Cc2ccc(O)cc2)N(C)C(=O)[C@H](Cc2ccc(O)cc2)NC(=O)[C@H](CCCNC(=N)N)NC(=O)[C@H](CCCNC(=N)N)NC(=O)[C@H]([C@@H](C)CC)NC1=O` (stereo partly drawn) [894_5m_GGSGES_K(Mal)], the equilibrium dissociation constant (Kd) was less than 1 nM.

Turning to `CC[C@H](C)[C@@H]1NC(=O)[C@H](Cc2ccc(O)cc2)NC(=O)[C@H](Cc2ccc(O)cc2)NC(=O)[C@H](CC(N)=O)NC(=O)[C@H](Cc2c[nH]c3ccccc23)N(C)C(=O)[C@H](C(C)C)NC(=O)[C@H](Cc2ccccc2)NC(=O)[C@H](C(C)C)NC(=O)[C@H](C)NC(=O)CSC[C@@H](C(=O)NCC(=O)N[C@@H](CO)C(=O)N[C@@H](CO)C(=O)NCC(=O)N[C@@H](CO)C(=O)N[C@@H](CO)C(=O)N[C@@H](CCCCNC(=O)C2CCC(CN3C(=O)C=CC3=O)CC2)C(N)=O)NC(=O)[C@H](Cc2ccc(O)cc2)N(C)C(=O)[C@H](Cc2ccc(O)cc2)NC(=O)[C@H](CCCNC(=N)N)NC(=O)[C@H](CCCNC(=N)N)NC(=O)[C@H]([C@@H](C)CC)NC1=O` (stereo partly drawn) [894_5m_GSSGSS_K(Mal)], the Kd was less than 1 nM.

The test is the same for the next values; noted with them: naked peptide (1st to 15th amino acids, without linker part) corresponding to the listed linker-attached peptide; read-out: SPR of naked peptide (KD for binding to hTfR).
In the case of `CC[C@H](C)[C@@H]1NC(=O)[C@H](Cc2ccc(O)cc2)NC(=O)[C@H](Cc2ccc(O)cc2)NC(=O)[C@H](CC(N)=O)NC(=O)[C@H](Cc2c[nH]c3ccccc23)NC(=O)[C@H](C(C)C)NC(=O)[C@H](Cc2ccccc2)N(C)C(=O)[C@H](C(C)C)NC(=O)[C@H](C)NC(=O)CSC[C@@H](C(=O)NCC(=O)NCC(=O)N[C@@H](CCC(N)=O)C(=O)NCC(=O)N[C@@H](CCC(N)=O)C(=O)N[C@@H](CO)C(=O)NCC(=O)NCC(=O)N[C@@H](CCC(N)=O)C(=O)NCC(=O)N[C@@H](CCC(N)=O)C(=O)N[C@@H](CO)C(=O)NCCCC(=O)ON2C(=O)CCC2=O)NC(=O)[C@H](Cc2ccc(O)cc2)N(C)C(=O)[C@H](Cc2ccc(O)cc2)NC(=O)[C@H](CCCNC(=N)N)NC(=O)[C@H](CCCNC(=N)N)NC(=O)[C@H]([C@@H](C)CC)NC1=O` [894_3m_GGQGQSx2_gAbu(NHS)] ({CH2CO}-AV[NMeF]VWNYYIIRRY[NMeY]CGGQGQSGGQGQS[GABA]-OSu; thioether N-15), the Kd lay within 1 to 100 nM.

As to `CC[C@H](C)[C@@H]1NC(=O)[C@H](Cc2ccc(O)cc2)NC(=O)[C@H](Cc2ccc(O)cc2)NC(=O)[C@H](CC(N)=O)NC(=O)[C@H](Cc2c[nH]c3ccccc23)N(C)C(=O)[C@H](C(C)C)NC(=O)[C@H](Cc2ccccc2)NC(=O)[C@H](C(C)C)NC(=O)[C@H](C)NC(=O)CSC[C@@H](C(=O)NCCOCCOCCOCCOCCOCCOCCOCCOCCC(=O)N[C@@H](CCCCNC(=O)C2CCC(CN3C(=O)C=CC3=O)CC2)C(N)=O)NC(=O)[C@H](Cc2ccc(O)cc2)N(C)C(=O)[C@H](Cc2ccc(O)cc2)NC(=O)[C@H](CCCNC(=N)N)NC(=O)[C@H](CCCNC(=N)N)NC(=O)[C@H]([C@@H](C)CC)NC1=O` (stereo partly drawn) [894_5m_PEG08_K(Mal)], the Kd was less than 1 nM.

For `CC[C@H](C)[C@@H]1NC(=O)[C@H](Cc2ccc(O)cc2)NC(=O)[C@H](Cc2ccc(O)cc2)NC(=O)[C@H](CC(N)=O)NC(=O)[C@H](Cc2c[nH]c3ccccc23)NC(=O)[C@H](C(C)C)NC(=O)[C@H](Cc2ccccc2)N(C)C(=O)[C@H](C(C)C)NC(=O)[C@H](C)NC(=O)CSC[C@@H](C(=O)NCC(=O)NCC(=O)NCC(=O)NCC(=O)N[C@@H](CO)C(=O)N[C@@H](CO)C(=O)N[C@@H](CCCCn2cc(CN3C(=O)C=CC3=O)nn2)C(N)=O)NC(=O)[C@H](Cc2ccc(O)cc2)N(C)C(=O)[C@H](Cc2ccc(O)cc2)NC(=O)[C@H](CCCNC(=N)N)NC(=O)[C@H](CCCCN)NC(=O)[C@H]([C@@H](C)CC)NC1=O` [894_11K_3MeF_G4S2_KTrzMal], the Kd was 1 to 100 nM.

For the molecule `CC[C@H](C)[C@@H]1NC(=O)[C@H](Cc2ccc(O)cc2)NC(=O)[C@H](Cc2ccc(O)cc2)NC(=O)[C@H](CC(N)=O)NC(=O)[C@H](Cc2c[nH]c3ccccc23)N(C)C(=O)[C@H](C(C)C)NC(=O)[C@H](Cc2ccccc2)N(C)C(=O)[C@H](C(C)C)NC(=O)[C@H](C)NC(=O)CSC[C@@H](C(=O)NCC(=O)NCC(=O)NCC(=O)NCC(=O)N[C@@H](CO)C(=O)N[C@@H](CO)C(=O)N[C@@H](CCCCn2cc(CN3C(=O)C=CC3=O)nn2)C(N)=O)NC(=O)[C@H](Cc2ccc(O)cc2)N(C)C(=O)[C@H](Cc2ccc(O)cc2)NC(=O)[C@H](CCCNC(=N)N)NC(=O)[C@H](CCCCN)NC(=O)[C@H]([C@@H](C)CC)NC1=O` [894_11K_3Me_5Me_G4S2_KTrzMal], the Kd is 1 to 100 nM.
